Measured values as given in US20050261332A1, “Sulfonamides and uses thereof” (priority 2004, published 2005).

Target: T1, GHS-R (Homo sapiens, UniProt Q92847)
T1 construct: expressed in transfected cells; host or cells: COS-7 cells
Assay: GHS-R competition binding assay (Ki of GHS-R antagonizing compounds)
Experimental: One exemplary binding assay is as follows: GHS-R expressing COS-7 cells cultured at a density of 1×10^5 cells per well so that binding is assayed in the range of about 5-8 % binding of the radioactive ligand. For example, the cells can express an endogenous nucleic acid encoding GHS-R or an exogenous nucleic acid encoding GHS-R. Cells transfected with an exogenous nucleic acid encoding GHS-R can be used, e.g., two days, after transfection. Competition binding experiments are performed for 3 hours at 4° C. using 25 pM of ^125I-ghrelin in 0.5 ml of 50 mM HEPES buffer, pH 7.4, supplemented with 1 mM CaCl2, 5 mM MgCl2, and 0.1% (w/v) bovine serum albumin, 40 mg/ml bacitracin. Non-specific binding can be determined as the binding in the presence of […] of unlabeled ghrelin. Cells are washed twice in 0.5 ml of ice-cold buffer and then lysed with 0.5-1 ml of lysis buffer (8 M Urea, 2% NP40 in 3 M acetic acid). After washing and lysis, the bound radioactivity is counted. Assays can be run in duplicate or triplicate, e.g., to provide statistical power.
Values of the dissociation and inhibition constants (Kd and Ki) can be estimated from competition binding experiments using the equation: Kd=IC50-L and Ki=IC50/(1+L/Kd), where L is the concentration of radioactive ligand. Bmax values can be estimated from competition binding experiments using the equation Bmax=B0 IC50/[ligand], where B0 is the specifically bound radioligand.

T1 sequence (Q92847 whole entry, species assumed): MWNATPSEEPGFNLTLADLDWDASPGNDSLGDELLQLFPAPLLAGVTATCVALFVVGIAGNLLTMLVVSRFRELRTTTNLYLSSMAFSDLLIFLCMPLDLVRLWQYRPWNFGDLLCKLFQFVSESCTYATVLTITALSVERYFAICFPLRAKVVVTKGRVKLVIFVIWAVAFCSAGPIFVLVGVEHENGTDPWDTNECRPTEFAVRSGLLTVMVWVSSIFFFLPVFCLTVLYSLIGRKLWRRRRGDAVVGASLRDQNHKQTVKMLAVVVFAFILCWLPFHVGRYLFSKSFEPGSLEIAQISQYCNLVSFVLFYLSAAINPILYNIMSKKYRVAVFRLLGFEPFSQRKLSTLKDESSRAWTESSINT

Row | SMILES | Ki
1 | CCN(CC)CCCS(=O)(=O)N[C@H](COCc1ccccc1)C(=O)NCc1ccc(-c2ccccc2C(N)=O)cc1 [Compound 154, (R)-4′-{[3-Benzyloxy-2-(3-diethylamino-propane-1-sulfonylamino)-propionylamino]-methyl}-biphenyl-2-carboxylic acid amide] | 0.1 to 1 µM
2 | CCN(CC)CCCS(=O)(=O)N[C@H](COCc1ccccc1)C(=O)NCc1ccc(-c2ccccc2-c2nnn(C(C)(C)C)n2)cc1 [Compound 155, (R)-3-Benzyloxy-N-[2′-(2-tert-butyl-2H-tetrazol-5-yl)-biphenyl-4-ylmethyl]-2-(3-diethylamino-propane-1-sulfonylamino)-propionamide] | 0.1 to 1 µM
3 | CCN(CC)CCCS(=O)(=O)N[C@H](COCc1ccccc1)C(=O)NCc1ccc(-c2ccccc2-c2nn[nH]n2)cc1 [Compound 156, (R)-3-Benzyloxy-2-(3-diethylamino-propane-1-sulfonylamino)-N-[2′-(2H-tetrazol-5-yl)-biphenyl-4-ylmethyl]-propionamide] | 0.1 to 1 µM
4 | CN([C@H](COCc1ccccc1)C(=O)N1CCC2(CC1)CN(S(C)(=O)=O)c1ccccc12)S(=O)(=O)CCCCl [Compound 157, (R)-N-(3-(benzyloxy)-1-(1-(methylsulfonyl)spiro[indoline-3,4′-piperidine]-1′-yl)-1-oxopropan-2-yl)-3-chloro-N-methylpropane-1-sulfonamide] | 0.1 to 1 µM
5 | CCN(CC)CCCS(=O)(=O)N[C@H](COCc1ccccc1)C(=O)NCc1ccc(-c2ccccc2C#N)cc1 [Compound 158, (R)-3-Benzyloxy-N-(2′-cyano-biphenyl-4-ylmethyl)-2-(3-diethylamino-propane-1-sulfonylamino)-propionamide] | < 0.1 µM
6 | COCCCS(=O)(=O)N[C@H](COCc1ccccc1)C(=O)N1CCC2(CC1)CN(S(C)(=O)=O)c1ccccc12 [Compound 159, (R)-N-(3-(benzyloxy)-1-(1-(methylsulfonyl)spiro[indoline-3,4′-piperidine]-1′-yl)-1-oxopropan-2-yl)-3-methoxypropane-1-sulfonamide] | 0.1 to 1 µM
7 | CCN(CC)CCCS(=O)(=O)N(C)[C@H](COCc1ccccc1)C(=O)N1CCC2(CC1)CN(S(C)(=O)=O)c1ccccc12 [Compound 160, (R)-N-(3-(benzyloxy)-1-(1-(methylsulfonyl)spiro[indoline-3,4′-piperidine]-1′-yl)-1-oxopropan-2-yl)-3-(diethylamino)-N-methylpropane-1-sulfonamide] | < 0.1 µM
8 | CCN(CC)CCCS(=O)(=O)N[C@H](CCc1ccccc1)C(=O)NCc1ccc(-c2ccccc2-c2nn[nH]n2)cc1 [Compound 161, (R)-N-((2′-(2H-tetrazol-5-yl)biphenyl-4-yl)methyl)-2-(3-(diethylamino)propylsulfonamido)-4-phenylbutanamide] | 0.1 to 1 µM
9 | CCN(CC)CCCS(=O)(=O)N[C@H](COCc1ccccc1)C(=O)NCc1ccc(-c2ccccc2-c2noc(=S)[nH]2)cc1 [Compound 162, (R)-3-Benzyloxy-2-(3-diethylamino-propane-1-sulfonylamino)-N-[2′-(5-thioxo-4,5-dihydro-[1,2,4]oxadiazol-3-yl)-biphenyl-4-ylmethyl]-propionamide] | < 0.1 µM
10 | CCN(CC)CCCS(=O)(=O)N[C@H](CCc1ccccc1)C(=O)N1CCC2(CC1)CN(S(C)(=O)=O)c1ccccc12 [Compound 163, (R)-3-(diethylamino)-N-(1-(1-(methylsulfonyl)spiro[indoline-3,4′-piperidine]-1′-yl)-1-oxo-4-phenylbutan-2-yl)propane-1-sulfonamide] | < 0.1 µM
11 | CCN(CC)CCCS(=O)(=O)N[C@H](COCc1ccccc1)C(=O)NCc1ccc(-c2ccccc2-c2noc(=O)[nH]2)cc1 [Compound 164, (R)-3-Benzyloxy-2-(3-diethylamino-propane-1-sulfonylamino)-N-[2′-(5-oxo-4,5-dihydro-[1,2,4]oxadiazol-3-yl)-biphenyl-4-ylmethyl]-propionamide] | 0.1 to 1 µM
12 | CCN(CC)CCCS(=O)(=O)N[C@H](COCc1ccccc1)C(=O)N1CCC2(C=Cc3ccccc32)CC1 [Compound 165, (R)-N-(3-(benzyloxy)-1-oxo-1-(spiro[indene-1,4′-piperidine]-1′-yl)propan-2-yl)-3-(diethylamino)propane-1-sulfonamide] | < 0.1 µM
13 | CCN(CC)CCCS(=O)(=O)N[C@H](COCc1ccccc1)C(=O)c1ccc(-c2ccccc2NC(=O)OC(C)(C)C)cc1 [Compound 166, (R)-{4′-[3-Benzyloxy-2-(3-diethylamino-propane-1-sulfonylamino)-propionyl]-biphenyl-2-yl}-carbamic acid tert-butyl ester] | > 1 µM
14 | CCN(CC)CCCS(=O)(=O)N[C@H](CCc1ccccc1)C(=O)c1ccc(-c2ccccc2NC(=O)OC(C)(C)C)cc1 [Compound 167, (R)-tert-butyl 4′-(2-(3-(diethylamino)propylsulfonamido)-4-phenylbutanoyl)biphenyl-2-ylcarbamate] | 0.1 to 1 µM
15 | CCN(CC)CCCS(=O)(=O)N[C@H](CCc1ccccc1)C(=O)c1ccc(-c2ccccc2CO)cc1 [Compound 168, (R)-3-(diethylamino)-N-(1-(2′-(hydroxymethyl)biphenyl-4-yl)-1-oxo-4-phenylbutan-2-yl)propane-1-sulfonamide] | < 0.1 µM
16 | CCN(CC)CCCS(=O)(=O)N[C@H](CCc1ccccc1)C(=O)c1ccc(-c2ccccc2N)cc1 [Compound 169] | < 0.1 µM
17 | CCN(CC)CCCS(=O)(=O)N[C@H](CCc1ccccc1)C(=O)NCc1ccc(-c2ccccc2CNC(C)=O)cc1 [Compound 170, (R)-N-((2′-(acetamidomethyl)biphenyl-4-yl)methyl)-2-(3-(diethylamino)propylsulfonamido)-4-phenylbutanamide] | 0.1 to 1 µM
18 | CCN(CC)CCCS(=O)(=O)N[C@H](CCc1ccccc1)C(=O)c1ccc(-c2ccccc2NC(=O)NC)cc1 [Compound 171, (R)-3-(diethylamino)-N-(1-(2′-(3-methylureido)biphenyl-4-yl)-1-oxo-4-phenylbutan-2-yl)propane-1-sulfonamide] | 0.1 to 1 µM

The remaining lines, values ahead:

Row | Ki | SMILES
19 | 0.1 to 1 µM | CCNC(=O)Nc1ccccc1-c1ccc(C(=O)[C@@H](CCc2ccccc2)NS(=O)(=O)CCCN(CC)CC)cc1 [Compound 172, (R)-3-(diethylamino)-N-(1-(2′-(3-ethylureido)biphenyl-4-yl)-1-oxo-4-phenylbutan-2-yl)propane-1-sulfonamide]
20 | < 0.1 µM | CCN(CC)CCCS(=O)(=O)N[C@H](CCc1ccccc1)C(=O)c1ccc(-c2ccccc2COC(=O)NC)cc1 [Compound 173, (R)-(4′-(2-(3-(diethylamino)propylsulfonamido)-4-phenylbutanoyl)biphenyl-2-yl)methyl methylcarbamate]
21 | 0.1 to 1 µM | CCN(CC)CCCS(=O)(=O)N[C@H](CCc1ccccc1)C(=O)c1ccc(-c2ccccc2C(N)=O)cc1 [Compound 174, (R)-4′-(2-(3-(diethylamino)propylsulfonamido)-4-phenylbutanoyl)biphenyl-2-carboxamide]
22 | 0.1 to 1 µM | CCNC(=O)Nc1ccccc1-c1ccc(C(=O)[C@@H](COCc2ccccc2)NS(=O)(=O)CCCN(CC)CC)cc1 [Compound 175, (R)-N-(3-(benzyloxy)-1-(2′-(3-ethylureido)biphenyl-4-yl)-1-oxopropan-2-yl)-3-(diethylamino)propane-1-sulfonamide]
23 | 0.1 to 1 µM | CCN(CC)CCCS(=O)(=O)N[C@H](COCc1ccccc1)C(=O)c1ccc(-c2ccccc2NC(=O)NC)cc1 [Compound 176, (R)-N-(3-(benzyloxy)-1-(2′-(3-methylureido)biphenyl-4-yl)-1-oxopropan-2-yl)-3-(diethylamino)propane-1-sulfonamide]
24 | 0.1 to 1 µM | CCN(CC)CCCS(=O)(=O)N[C@H](COCc1ccccc1)C(=O)c1ccc(-c2ccccc2C(N)=O)cc1 [Compound 177, (R)-4′-[3-Benzyloxy-2-(3-diethylamino-propane-1-sulfonylamino)-propionyl]-biphenyl-2-carboxylic acid amide]
25 | 0.1 to 1 µM | CCN(CC)CCCS(=O)(=O)N[C@H](COCc1ccccc1)C(=O)c1ccc(-c2ccccc2C#N)cc1 [Compound 178, (R)-N-(3-(benzyloxy)-1-(2′-cyanobiphenyl-4-yl)-1-oxopropan-2-yl)-3-(diethylamino)propane-1-sulfonamide]
26 | 0.1 to 1 µM | CCN(CC)CCCS(=O)(=O)N[C@H](CCc1ccccc1)C(=O)NCc1ccc(-c2ccccc2C(=O)NC)cc1 [Compound 179, (R)-4′-{[2-(3-Diethylamino-propane-1-sulfonylamino)-4-phenyl-butyrylamino]-methyl}-biphenyl-2-carboxylic acid methylamide]
27 | 0.1 to 1 µM | CCN(CC)CCCS(=O)(=O)N[C@H](CCc1ccccc1)C(=O)NCc1ccc(-c2ccccc2CN)cc1 [Compound 180, (R)-N-((2′-(aminomethyl)biphenyl-4-yl)methyl)-2-(3-(diethylamino)propylsulfonamido)-4-phenylbutanamide]
28 | 0.1 to 1 µM | CCN(CC)CCCS(=O)(=O)N[C@H](CCc1ccccc1)C(=O)NCc1ccc(-c2ccccc2CC(=O)NC)cc1 [Compound 181, (R)-2-(3-(diethylamino)propylsulfonamido)-N-((2′-(2-(methylamino)-2-oxoethyl)biphenyl-4-yl)methyl)-4-phenylbutanamide]
